In PubChem BioAssay AID328 (DTP/NCI, 2004):
Inconclusive results and toxic doses are left out. Rule for the calls: active = survival T/C of 150% or more; inactive = T/C below 125% in these data.

Test system: BDF1 mice, P388 leukemia ip, median survival T/C
Assay: NCI In Vivo Anticancer Drug Screen. Data for tumor model P388 Leukemia (intraperitoneal) in B6D2F1 (BDF1) mice
Details: endpoint: median survival time, higher = longer survival
Method in brief: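 Each value expresses how treatment altered survival: treated-mouse outcome over vehicle-mouse outcome, both groups bearing the transplanted tumour.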

[1] = dose: 100.0 mg/kg/injection, schedule: Q01DX009 (ip), vehicle: saline with Tween-80
[2] = dose: 200.0 mg/kg/injection, schedule: Q01DX009 (ip), vehicle: saline with Tween-80
[3] = dose: 100.0 mg/kg/injection, schedule: Q04DX003 (ip), vehicle: saline sonified
[4] = dose: 100.0 mg/kg/injection, schedule: Q04DX003 (ip), vehicle: Klucel (hydroxypropylcellulose) (HPC)
[5] = dose: 200.0 mg/kg/injection, schedule: Q04DX003 (ip), vehicle: Klucel (hydroxypropylcellulose) (HPC)
[6] = dose: 400.0 mg/kg/injection, schedule: Q04DX003 (ip), vehicle: Klucel (hydroxypropylcellulose) (HPC)
[7] = dose: 100.0 mg/kg/injection, schedule: Q01DX009 (ip), vehicle: Klucel (hydroxypropylcellulose) (HPC)
[8] = dose: 200.0 mg/kg/injection, schedule: Q01DX009 (ip), vehicle: Klucel (hydroxypropylcellulose) (HPC)
[9] = dose: 400.0 mg/kg/injection, schedule: Q01DX009 (ip), vehicle: Klucel (hydroxypropylcellulose) (HPC)

Measured: T/C

[Cl][Pd][Cl].[NH-]CC[NH-]
inactive: dose: 6.0 mg/kg/injection, schedule: Q01DX009 (ip), vehicle: saline with Tween-80 104 % of control | dose: 12.0 mg/kg/injection, schedule: Q01DX009 (ip), vehicle: saline with Tween-80 104 % of control | dose: 25.0 mg/kg/injection, schedule: Q01DX009 (ip), vehicle: saline with Tween-80 100 % of control | [1] 118 % of control | dose: 100.0 mg/kg/injection, schedule: Q04DX003 (ip), vehicle: saline with Tween-80 100 % of control | dose: 200.0 mg/kg/injection, schedule: Q04DX003 (ip), vehicle: saline with Tween-80 118 % of control | dose: 400.0 mg/kg/injection, schedule: Q04DX003 (ip), vehicle: saline with Tween-80 113 % of control

CC(c1ccccc1)N1COc2ccc3ccccc3c2C1 (stereo unspecified)
inactive: [1] 100 % of control | [2] 104 % of control | dose: 400.0 mg/kg/injection, schedule: Q01DX009 (ip), vehicle: saline with Tween-80 113 % of control

NC(=O)c1nn(C2OC(CO)C(O)C2O)c2ncnc(N)c12 (stereo unspecified)
inactive: dose: 12.5 mg/kg/injection, schedule: Q01DX009 (ip), vehicle: Klucel (hydroxypropylcellulose) (HPC) 118 % of control

CC(C)(O)C(Cl)(Cl)Cl
inactive: dose: 50.0 mg/kg/injection, schedule: Q04DX003 (ip), vehicle: saline 115 % of control | dose: 100.0 mg/kg/injection, schedule: Q04DX003 (ip), vehicle: saline 111 % of control | dose: 200.0 mg/kg/injection, schedule: Q04DX003 (ip), vehicle: saline 107 % of control

O=C(O)C1C(C(=O)O)N2C(c3ccccc3)C(C(=O)O)C(C(=O)O)N2C1c1ccccc1 (stereo unspecified)
inactive: dose: 50.0 mg/kg/injection, schedule: Q01DX009 (ip), vehicle: saline with Tween-80 90 % of control | [1] 90 % of control | [2] 90 % of control

CCN(CCN)c1cccc(C)c1
inactive: dose: 25.0 mg/kg/injection, schedule: Q04DX003 (ip), vehicle: saline sonified 100 % of control | dose: 50.0 mg/kg/injection, schedule: Q04DX003 (ip), vehicle: saline sonified 120 % of control | [3] 100 % of control

CN(C)C(=O)C(=O)C1C=Cc2ccccc21 (stereo unspecified)
inactive: dose: 100.0 mg/kg/injection, schedule: Q01DX001 (ip), vehicle: Klucel (hydroxypropylcellulose) (HPC) 100 % of control | [4] 100 % of control | dose: 200.0 mg/kg/injection, schedule: Q01DX001 (ip), vehicle: Klucel (hydroxypropylcellulose) (HPC) 95 % of control | [5] 104 % of control | dose: 400.0 mg/kg/injection, schedule: Q01DX001 (ip), vehicle: Klucel (hydroxypropylcellulose) (HPC) 90 % of control | [6] 104 % of control

COc1ccccc1C(=O)NN
inactive: dose: 6.25 mg/kg/injection, schedule: Q04DX003 (ip), vehicle: saline 100 % of control | dose: 12.5 mg/kg/injection, schedule: Q04DX003 (ip), vehicle: saline 110 % of control | dose: 25.0 mg/kg/injection, schedule: Q04DX003 (ip), vehicle: saline 105 % of control

COc1ccc(NC(=O)Oc2cc(C)cc(C)c2)cc1
inactive: [4] 100 % of control | [5] 95 % of control | [6] 100 % of control

CC(C(=O)O)N1C(=O)c2ccccc2C1=O (stereo unspecified)
inactive: [7] 109 % of control | [4] 100 % of control | [8] 109 % of control | [5] 104 % of control | [9] 118 % of control | [6] 100 % of control

CC1SC(N)=NC1=O (stereo unspecified)
inactive: [7] 100 % of control | [4] 109 % of control | [8] 109 % of control | [5] 86 % of control | [9] 100 % of control | [6] 109 % of control

CCCCNCCC(SSSC(CCNCCCC)c1ccc(Cl)cc1)c1ccc(Cl)cc1 (stereo unspecified)
inactive: dose: 6.25 mg/kg/injection, schedule: Q04DX003 (ip), vehicle: saline with Tween-80 104 % of control | dose: 12.5 mg/kg/injection, schedule: Q04DX003 (ip), vehicle: saline with Tween-80 100 % of control | dose: 25.0 mg/kg/injection, schedule: Q04DX003 (ip), vehicle: saline with Tween-80 109 % of control

COC(=O)C(NC(=O)c1ccccc1)=C(COC(C)=O)COC(C)=O
inactive: [3] 95 % of control | dose: 200.0 mg/kg/injection, schedule: Q04DX003 (ip), vehicle: saline sonified 100 % of control | dose: 400.0 mg/kg/injection, schedule: Q04DX003 (ip), vehicle: saline sonified 110 % of control

O=c1c2ccccc2[nH]c2c([N+](=O)[O-])ccc(Oc3cccc(C(F)(F)F)c3)c12
inactive: dose: 100.0 mg/kg/injection, schedule: Q04DX002 (ip), vehicle: saline with Tween-80 90 % of control | dose: 200.0 mg/kg/injection, schedule: Q04DX002 (ip), vehicle: saline with Tween-80 102 % of control | dose: 400.0 mg/kg/injection, schedule: Q04DX002 (ip), vehicle: saline with Tween-80 92 % of control

O=[N+]([O-])c1ccc(N/N=C/c2ccccn2)cc1
inactive: [4] 104 % of control | [5] 100 % of control | [6] 109 % of control
